The values below come from US11274104B2, “Crystal forms of thiophene derivatives” (Tianjin Hemay Pharmaceutical Co., Ltd, priority 2018, dated 2022).

The structures appear in SMILES notation.

Format in all cases: physicochemical
The nature of one data set: Hygroscopicity (RH=80%). The procedure:
Hygroscopicity of crystal form II of (S)—N-[5-[1-(3-ethoxy-4-methoxyphenyl)-2-(methylsulfonyl)ethyl]-4,6-dioxo-5,6-dihydro-4H-thieno[3,4-c]pyrrole-1-yl]acetamide was studied. Crystal form II of (S)—N-[5-[1-(3-ethoxy-4-methoxyphenyl)-2-(methylsulfonyl)ethyl]-4,6-dioxo-5,6-dihydro-4H-thieno[3,4-c]pyrrole-1-yl]acetamide was placed in a drier containing saturated ammonium chloride solution (RH=80%) until weight was balanced. The crystal form was tested with XRPD.
Crystal form II of (S)—N-[5-[1-(3-ethoxy-4-methoxyphenyl)-2-(methylsulfonyl)ethyl]-4,6-dioxo-5,6-dihydro-4H-thieno[3,4-c]pyrrole-1-yl]acetamide prepared according to the process of Example 1 was tested.

A short description of the next data set: Grinding stability. Conditions: grinding in a glass mortar for 5 minutes. As for the experimental part:
Crystal form II of (S)—N-[5-[1-(3-ethoxy-4-methoxyphenyl)-2-(methylsulfonyl)ethyl]-4,6-dioxo-5,6-dihydro-4H-thieno[3,4-c]pyrrole-1-yl]acetamide prepared according to the process of Example 1 was ground in a glass mortar for 5 minutes. The ground samples were tested with XRPD.

A short description of data set [1]: Accelerated stability (40° C., RH 75%, 1 month). As for the experimental part:
Crystal form II of (S)—N-[5-[1-(3-ethoxy-4-methoxyphenyl)-2-(methylsulfonyl)ethyl]-4,6-dioxo-5,6-dihydro-4H-thieno[3,4-c]pyrrole-1-yl]acetamide prepared according to the process of Example 1 was placed in a stability text box at 40° C. and Rh=75%. After 1 month, liquid chromatogram and DSC were tested.

A short description of data set [2]: Illumination stability (4500 lux, 1 month). Conditions: liquid chromatogram. As for the experimental part: Crystal form II of (S)—N-[5-[1-(3-ethoxy-4-methoxyphenyl)-2-(methylsulfonyl)ethyl]-4,6-dioxo-5,6-dihydro-4H-thieno[3,4-c]pyrrole-1-yl]acetamide prepared according to the process of Example 1 was placed in a 4500 lux of illumination box for 1 month. Liquid chromatogram and DSC were tested after 1 month.

Data set [3] can be described thus: High temperature stability (40° C., 1 month). As for the experimental part: Crystal form II of (S)—N-[5-[1-(3-ethoxy-4-methoxyphenyl)-2-(methylsulfonyl)ethyl]-4,6-dioxo-5,6-dihydro-4H-thieno[3,4-c]pyrrole-1-yl]acetamide prepared according to the process of Example 1 was placed at 40° C. (high temperature). After 1 month, liquid chromatogram and DSC were tested.

Data set [4] in a line: Pressure stability (tablet press). Conditions: single punch tablet press, tablet 6 mm, hardness 25-30 N; DSC (FIG. 5). As for the experimental part: Crystal form II of (S)—N-[5-[1-(3-ethoxy-4-methoxyphenyl)-2-(methylsulfonyl)ethyl]-4,6-dioxo-5,6-dihydro-4H-thieno[3,4-c]pyrrole-1-yl]acetamide was pressed by tablet press machine with single punch. The diameter of the tablet was 6 mm and the hardness was 25-30 N. DSC test was carried out on pressed powder.

The mark [5] stands for this setting: day 0, before storage at 40° C., liquid chromatogram.
Where [6] appears, read: storage at 40° C., 1 month, liquid chromatogram.

In the case of `CCOc1cc([C@@H](CS(C)(=O)=O)N2C(=O)c3csc(NC(C)=O)c3C2=O)ccc1OC` [crystal form II, (S)—N-[5-[1-(3-ethoxy-4-methoxyphenyl)-2-(methylsulfonyl)ethyl]-4,6-dioxo-5,6-dihydro-4H-thieno[3,4-c]pyrrole-1-yl]acetamide], the “hygroscopicity (in words)” value in the data set “Hygroscopicity (RH=80%)” (RH=80%) is “hardly absorbed moisture”. In addition, the “Weight Increase” value in the data set “Hygroscopicity (RH=80%)” (RH=80% (saturated ammonium chloride solution) until weight balanced, mAPI 0.497 g) is -0.001 g. In addition, the “Moisture Absorption (%)” value in the data set “Hygroscopicity (RH=80%)” (RH=80% until weight balanced) was 0%. For the same compound, the “Crystal Form after Absorbing Moisture” value in the data set “Hygroscopicity (RH=80%)” (RH=80% until weight balanced, XRPD) is given as “did not change”. Moreover, the “grinding stability (in words)” value in “Grinding stability” is “good grinding stability”. In data set [1] (40° C., 1 month), the “stability under high-temperature and high-humidity conditions (in words)” value was “good stability”. In addition, the “Relevant Substance Contents at Day 0 (%)” value in data set [1] (setting [5]) is 0.11%; in data set [2] (day 0, before illumination at 4500 lux) it was 0.06%; in data set [3] (setting [5]), 0.10%. In addition, the “Relevant Substance Contents after 1 Month (%)” value was 0.11% in data set [1] (setting [6]); 0.06% in data set [2] (4500 lux, 1 month); 0.12% in data set [3] (setting [6]). Further, the “stability under high temperature conditions (in words)” value in data set [3] (40° C., 1 month) is “good stability”. For the same compound, in data set [4], the “pressure stability (in words)” value is on record as “good stability”.
